Molecules are shown by their SMILES. Counter-ions that a name gives are not always drawn. Like-named read-outs stand apart in the source and are kept apart here. A value given as a limit tells only on which side of the number the result lay.

For orientation: GI50 means the concentration at which growth is held to half of that of the control.

In one data set the test system is BXPC-3 (pancreas). The experiment in a line: Human cancer cell growth inhibition, sulforhodamine B assay (NCI). The data set is classed as cell-based. Here is the method: (§1) Cancer Cell Line Procedures. Human cancer cell growth inhibition was measured using the standard sulforhodamine B assay of the U.S. National Cancer Institute, as previously described.^12 Briefly, cells in a 5% fetal bovine serum/RPMI1640 medium were inoculated in 96-well plates and incubated for 24 h. That was followed by serial dilutions of the compounds added. Forty-eight hours later the plates were fixed with trichloroacetic acid, stained with sulforhodamine B, and read with an automated microplate reader.
(§2) Next, growth inhibition of 50% (GI50 or the drug concentration causing a 50% reduction in the net protein increase) was calculated from optical density data with Immunosoft® software.
Background: Sulforhodamine B stains cellular protein and so reports cell mass.

In a further data set the test system is DU-145 (prostate). The data set is described as above. The data set is classed as cell-based. The method, then:
as §1, §2

For the next data set, the system named is KM20L2 (colon). Described as above. The data set is classed as cell-based. Here is the method: as §1, §2
A further data set relates to MCF-7 (breast). Described as above. The format is cell-based. The method, then:
as §1, §2

For another data set, the system named is NCI-H460 (lung). Described as above. The format is cell-based. The method, then: as §1, §2
A further data set relates to SF-268 (CNS). The description is as above. The data set is classed as cell-based. The method, then:
as §1

In another data set the test system is Human Cancer Cell Lines. The experiment in a line: Human cancer cell growth inhibition, summary over the six cell line panel. The data set is classed as cell-based. Conditions: for biological activity (cancer cell growth inhibition): six cell line panel; for decrease in biological activity compared to both emetine and Compound 5: in four cell lines. The method, then: as §1, §2

The subject of data set [1] is NCI 60 Cancer cell screen. Conditions: cited from earlier work.
The mark [2] stands for this setting: NCI-H460, 48 h, sulforhodamine B.

`CC[C@H]1CN2CCc3cc(OC)c(OC)cc3C2C[C@@H]1C[C@@H]1c2cc(OC)c(OC)cc2CCN1C(=O)[C@H](C)[C@@H](OC)C1CCCN1C(=O)C[C@@H](OC)[C@H]([C@@H](C)CC)N(C)C(=O)[C@@H](NC(=O)[C@H](C(C)C)N(C)C)C(C)C` (stereo in doubt) [Compound 5, 2N′-(Dov-Val-Dil-Dap)-Emetine]: the “decrease in activity compared to emetine” value in the data set on BXPC-3 (pancreas) (BXPC-3 cell line) worked out at 10 fold. Further, the GI50 in the data set on BXPC-3 (pancreas) (Homo sapiens, BXPC-3) came out at 386 nM; with BXPC-3 (pancreas) (Homo sapiens, BXPC-3, 48 h), 0.41 µg/mL; with DU-145 (prostate) (Homo sapiens, DU-145), 12.3 nM; in the data set with DU-145 (prostate) (Homo sapiens, DU-145, 48 h) it was 0.013 µg/mL; in the data set on KM20L2 (colon) (Homo sapiens, KM-20L2), 35.8 nM; with KM20L2 (colon) (Homo sapiens, KM-20L2, 48 h), 0.038 µg/mL. Besides, the GI50 in the data set with MCF-7 (breast) (Homo sapiens, MCF7) was determined as 35.8 nM; in the data set on MCF-7 (breast) (Homo sapiens, MCF7, 48 h), 0.038 µg/mL; with NCI-H460 (lung) (Homo sapiens, NCI-H460), 198 nM; in the data set on NCI-H460 (lung) (Homo sapiens, NCI-H460, 48 h), 0.21 µg/mL; in the data set on SF-268 (CNS) (Homo sapiens, SF-268), 30.2 nM; in the data set on SF-268 (CNS) (Homo sapiens, SF-268, 48 h), 0.032 µg/mL. Also, in the data set on Human Cancer Cell Lines (in four of the six cell lines), the “cytotoxicity relative to emetine” value is “comparable to that of emetine”.
`CC[C@H]1CN2CCc3cc(OC)c(OC)cc3[C@@H]2C[C@@H]1C[C@H]1NCCc2cc(OC)c(OC)cc21` [Compound 1, emetine dihydrochloride, reference compound]: the GI50 in the data set with BXPC-3 (pancreas) (Homo sapiens, BXPC-3, 48 h, sulforhodamine B, read-out: GI50) was 0.031 µg/mL; with BXPC-3 (pancreas) (Homo sapiens, BXPC-3, value in brackets, read-out: GI50) it was 56 nM; in the data set with DU-145 (prostate) (Homo sapiens, DU-145, 48 h, sulforhodamine B, read-out: GI50), 0.02 µg/mL; with DU-145 (prostate) (Homo sapiens, DU-145, value in brackets, read-out: GI50), 36.1 nM; in the data set on KM20L2 (colon) (Homo sapiens, KM-20L2, KM20L2, 48 h, sulforhodamine B, read-out: GI50), 0.026 µg/mL; in the data set on KM20L2 (colon) (Homo sapiens, KM-20L2, KM20L2, value in brackets, read-out: GI50) it was 47 nM. Further, the GI50 in the data set on MCF-7 (breast) (Homo sapiens, MCF7, MCF-7, 48 h, sulforhodamine B, read-out: GI50) stood at 0.03 µg/mL; with MCF-7 (breast) (Homo sapiens, MCF7, MCF-7, value in brackets, read-out: GI50) it was 54.2 nM; in the data set on NCI-H460 (lung) (Homo sapiens, NCI-H460, 48 h, sulforhodamine B, read-out: GI50), 0.022 µg/mL; with NCI-H460 (lung) (Homo sapiens, NCI-H460, value in brackets, read-out: GI50), 39.7 nM.
Take `CCC1CN2CCc3cc(OC)c(OC)cc3C2CC1CC1c2cc(OC)c(OC)cc2CCN1C(=O)C(C)C(OC)C1CCCN1.O=C(O)C(F)(F)F` (stereo not shown) [Compound 3, 2′-N-(Dap)-emetine TFA salt]: the GI50 in the data set on BXPC-3 (pancreas) (BXPC-3, 48 h, sulforhodamine B) worked out at 2.1 µg/mL; in the data set with BXPC-3 (pancreas) (BXPC-3, value in brackets, read-out: GI50), 2390 nM; in the data set on DU-145 (prostate) (DU-145, 48 h, sulforhodamine B), 3.0 µg/mL; in the data set with DU-145 (prostate) (DU-145, value in brackets, read-out: GI50), 3420 nM; with KM20L2 (colon) (KM20L2, 48 h, sulforhodamine B), 3.0 µg/mL; in the data set on KM20L2 (colon) (KM20L2, value in brackets, read-out: GI50), 3420 nM. In addition, the GI50 was found to be 1.4 µg/mL in the data set with MCF-7 (breast) (MCF-7, 48 h, sulforhodamine B); 1600 nM with MCF-7 (breast) (MCF-7, value in brackets, read-out: GI50); 5.0 µg/mL in the data set on NCI-H460 (lung) (setting [2]); 5700 nM in the data set with NCI-H460 (lung) (NCI-H460, value in brackets, read-out: GI50); 3.2 µg/mL in the data set with SF-268 (CNS) (SF-268, 48 h, sulforhodamine B); 3650 nM in the data set with SF-268 (CNS) (SF-268, value in brackets, read-out: GI50). Also, the “decrease in activity compared to emetine” value in the data set with Human Cancer Cell Lines (in all six cell lines) was 100 fold.
For the molecule `CCC1CN2CCc3cc(OC)c(OC)cc3C2CC1CC1c2cc(OC)c(OC)cc2CCN1C(=O)CCNC(=O)OC(C)(C)C` (stereo not drawn) [Compound 6, 2′-(N-carboxy-β-alanyl)-tert-butyl emetine ester], the GI50 with BXPC-3 (pancreas) (BXPC-3, 48 h, sulforhodamine B) is over 10 µg/mL; with DU-145 (prostate) (DU-145, 48 h, sulforhodamine B) it was over 10 µg/mL; with KM20L2 (colon) (KM20L2, 48 h, sulforhodamine B), over 10 µg/mL; with MCF-7 (breast) (MCF-7, 48 h, sulforhodamine B) it was 10 µg/mL; in the data set with NCI-H460 (lung) (setting [2]), over 10 µg/mL; in the data set on SF-268 (CNS) (SF-268, 48 h, sulforhodamine B), over 10 µg/mL. The “biological activity (cancer cell growth inhibition)” value with Human Cancer Cell Lines was “inactive”.
Consider `CC[C@H]1CN2CCc3cc(OC)c(OC)cc3C2C[C@@H]1C[C@@H]1c2cc(OC)c(OC)cc2CCN1C(=O)CCN` (stereo partly drawn) [Compound 7, 2′-N-(β-alanine)-emetine TFA salt], for which the GI50 in the data set on BXPC-3 (pancreas) (Homo sapiens, BXPC-3, 48 h) is 10.3 µg/mL; in the data set with DU-145 (prostate) (Homo sapiens, DU-145, 48 h), 10.1 µg/mL; with KM20L2 (colon) (Homo sapiens, KM-20L2, 48 h) it was over 10 µg/mL; in the data set with MCF-7 (breast) (Homo sapiens, MCF7, 48 h), over 10 µg/mL; in the data set with NCI-H460 (lung) (Homo sapiens, NCI-H460, 48 h), over 10 µg/mL; in the data set on SF-268 (CNS) (Homo sapiens, SF-268, 48 h), over 10 µg/mL. Further, the “biological activity (cancer cell growth inhibition)” value in the data set on Human Cancer Cell Lines is “inactive”.
For `CCC1CN2CCc3cc(OC)c(OC)cc3C2CC1CC1c2cc(OC)c(OC)cc2CCN1C(=O)CCNC(=O)C(C)C(OC)C1CCCN1C(=O)OC(C)(C)C` (stereo not shown) [Compound 8, 2′-N-(boc-dap-[…]-ala)-emetine], the GI50 is over 10 µg/mL in the data set on BXPC-3 (pancreas) (BXPC-3, 48 h, sulforhodamine B); 10.0 µg/mL in the data set on DU-145 (prostate) (DU-145, 48 h, sulforhodamine B); over 10 µg/mL in the data set with KM20L2 (colon) (KM20L2, 48 h, sulforhodamine B); over 10 µg/mL in the data set with MCF-7 (breast) (MCF-7, 48 h, sulforhodamine B); over 10 µg/mL in the data set with NCI-H460 (lung) (setting [2]); over 10 µg/mL in the data set with SF-268 (CNS) (SF-268, 48 h, sulforhodamine B). Besides, the “biological activity (cancer cell growth inhibition)” value in the data set with Human Cancer Cell Lines is “inactive”.
As to `CC[C@H]1CN2CCc3cc(OC)c(OC)cc3C2C[C@@H]1C[C@@H]1c2cc(OC)c(OC)cc2CCN1C(=O)CCNC(=O)[C@H](C)[C@@H](OC)C1CCCN1C(=O)C[C@@H](OC)C([C@@H](C)CC)N(C)C(=O)[C@@H](NC(=O)[C@H](C(C)C)N(C)C)C(C)C` (stereo partly drawn) [Compound 9, Dov-Val-Dil-Dap-β-Ala-Emetine], the GI50 is 3800 nM in the data set on BXPC-3 (pancreas) (Homo sapiens, BXPC-3); 4.3 µg/mL with BXPC-3 (pancreas) (Homo sapiens, BXPC-3, 48 h); 97.2 nM in the data set on DU-145 (prostate) (Homo sapiens, DU-145); 0.11 µg/mL in the data set with DU-145 (prostate) (Homo sapiens, DU-145, 48 h); 194 nM in the data set on KM20L2 (colon) (Homo sapiens, KM-20L2); 0.22 µg/mL in the data set with KM20L2 (colon) (Homo sapiens, KM-20L2, 48 h). In addition, the GI50 in the data set with MCF-7 (breast) (Homo sapiens, MCF7) is 159 nM; in the data set with MCF-7 (breast) (Homo sapiens, MCF7, 48 h), 0.18 µg/mL; in the data set on NCI-H460 (lung) (Homo sapiens, NCI-H460), 2830 nM; in the data set with NCI-H460 (lung) (Homo sapiens, NCI-H460, 48 h), 3.2 µg/mL; in the data set on SF-268 (CNS) (Homo sapiens, SF-268), 186 nM; in the data set with SF-268 (CNS) (Homo sapiens, SF-268, 48 h) it was 0.21 µg/mL. Besides, the “decrease in biological activity compared to both emetine and Compound 5” value in the data set with Human Cancer Cell Lines was determined as 10 fold.
As to `CC[C@H]1CN2CCc3cc(OC)c(OC)cc3C2C[C@@H]1C[C@@H]1c2cc(OC)c(OC)cc2CCN1CCNC(=O)[C@H](C)[C@@H](OC)C1CCCN1C(=O)C[C@@H](OC)C([C@@H](C)CC)N(C)C(=O)[C@@H](NC(=O)[C@H](C(C)C)N(C)C)C(C)C` (stereo partly drawn) [Compound 10, 2′-N-(ethylamine-N-Dap-Dil-Val-Dov)-Emetine], the GI50 in the data set on BXPC-3 (pancreas) (Homo sapiens, BXPC-3) was determined as 1900 nM; in the data set on BXPC-3 (pancreas) (Homo sapiens, BXPC-3, 48 h), 2.1 µg/mL; in the data set with DU-145 (prostate) (Homo sapiens, DU-145) it was 181 nM; with DU-145 (prostate) (Homo sapiens, DU-145, 48 h) it was 0.2 µg/mL; in the data set on KM20L2 (colon) (Homo sapiens, KM-20L2), 362 nM; in the data set with KM20L2 (colon) (Homo sapiens, KM-20L2, 48 h), 0.4 µg/mL. The 50% growth inhibitory concentration (GI50) in the data set with MCF-7 (breast) (Homo sapiens, MCF7) worked out at 118 nM; in the data set on MCF-7 (breast) (Homo sapiens, MCF7, 48 h) it was 0.13 µg/mL; in the data set on NCI-H460 (lung) (Homo sapiens, NCI-H460), 4530 nM; with NCI-H460 (lung) (Homo sapiens, NCI-H460, 48 h), 5 µg/mL; in the data set on SF-268 (CNS) (Homo sapiens, SF-268) it was 272 nM; with SF-268 (CNS) (Homo sapiens, SF-268, 48 h) it was 0.3 µg/mL. Also, in the data set on Human Cancer Cell Lines, the “decrease in biological activity compared to both emetine and Compound 5” value stood at 10 fold.
Take `CC[C@H]1CN2CCc3cc(OC)c(OC)cc3[C@@H]2C[C@@H]1C[C@H]1NCCc2cc(OC)c(OC)cc21` [Emetine]: the G150 in data set [1] is 27 nM.

Source of the values: patent US11548889B2, “Emetine auristatin compounds” (Arizona Board of Regents on behalf of Arizona State …, priority 2019, dated 2023).
